From US9181259B2 (LEO PHARMA A/S, priority 2012, dated 2015)
Structures can show the parent of a compound that is named as a salt.

Columns and labels:
NK1 receptor = biological target: T1, NK1 receptor (Homo sapiens, UniProt P25103); experiment: NK1 receptor mediated intracellular [Ca2+] mobilization in U251 MG cells using FLIPR; assay type: cell-based; details: antagonist potency against Substance P (EC80), normalized to 100 nM Aprepitant, read-out: U251MG (FLIPR pIC50) (converted)
T1 construct: Measurement of NK1 Receptor Mediated Intracellular [Ca^2+]; Mobilization in U251 MG Cells Using FLIPR; endogenous in cells; host or cells: U251 MG cells
T1 sequence (P25103 whole entry): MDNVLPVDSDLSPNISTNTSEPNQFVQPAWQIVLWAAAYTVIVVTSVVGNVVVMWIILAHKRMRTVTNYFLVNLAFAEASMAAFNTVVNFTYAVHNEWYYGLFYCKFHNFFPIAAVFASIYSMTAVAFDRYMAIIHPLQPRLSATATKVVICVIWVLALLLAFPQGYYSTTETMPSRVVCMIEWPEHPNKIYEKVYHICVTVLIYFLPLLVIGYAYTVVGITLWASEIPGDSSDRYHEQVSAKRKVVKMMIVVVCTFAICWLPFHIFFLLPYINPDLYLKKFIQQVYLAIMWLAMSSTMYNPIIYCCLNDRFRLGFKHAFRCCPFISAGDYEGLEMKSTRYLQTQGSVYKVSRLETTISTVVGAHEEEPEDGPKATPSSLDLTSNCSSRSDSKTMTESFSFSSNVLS
In short: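 Fluo-4-loaded U251 MG cells were preincubated with compound (0.5% DMSO final), with any agonist effect read for 5 min, then 10 min more at 37 °C before Substance P at EC80. Peak FLIPR fluorescence change was read, and IC50 came from a four-parameter fit as the midpoint between fitted top and bottom.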

[1] = Hepatic intrinsic clearance following incubation in human liver microsomes; assay type: in vitro ADME; details: NADPH regenerating system, 0-30 min, 37 °C
Experimental: Hepatic Extraction Ratio from Hepatic Intrinsic Clearance Following Incubation in Human Liver Microsomes
The general procedure consists of an automated incubation system and LC-MS/MS analysis with human liver microsomes. Human liver microsomes are thawed rapidly in a waterbath at 37° C. and kept on ice until use. The human liver microsomes are diluted with 50 mM potassium phosphate buffer pH 7.4 to a protein concentration of 0.55 mg/mL. Test compounds and positive controls (Verapamil and Dextromethorphan, positive controls for CYP3A4 for CYP2D6 isoforms, respectively) are dissolved in methanol (or other appropriate solvent, if necessary) in order to obtain a 5 mM solution which is further diluted to the concentration of 50 μM. The stock solutions are prepared immediately before the test.
5 μL of 50 μM test compounds and controls are added to 445 μL-of the 0.55 mg/mL microsomes solution and the incubation mixture are pre-warmed at 37° C. for 5 minutes.
The incubation reactions are initiated by adding 50 μL of pre-warmed NADPH regenerating system to the incubation mixtures. 50 μL-aliquots will be taken from the incubation mixtures at: 0, 3, 6, 9, 15 and 30 minutes and the reactions are stopped by adding 100 μL of ACN containing Rolipram, used as generic Internal Standard (1S). Samples are then diluted with 120 μL of Milli-Q water and centrifuged at 3000 rpm for 10 minutes, prior the LC-MS/MS analysis.
The integrated peak areas for test compounds at the selected time points are divided by the respective peak areas of the IS and the percent of parent remaining is calculated by normalizing the peak area ratio of parent to IS at 0 min. Observed rate constant (kobs) for parent degradation is calculated by determining the slope of the line of the graph of the natural log of percentage parent remaining versus time of incubation. From the rate of depletion (min-1) and volume of the incubation (mL), clearance is estimated. This is scaled for the protein in the incubation relative to that in the intact liver, for all species (mL/min/g liver).
Values for the Human in vitro Clint are expressed as mL/min/g liver.
Assuming a liver weight of 25.7 g/kg and a liver blood flow of 20.7 mL/min/kg, the hepatic extraction ratio, Eh, can be derived from the Human in vitro Clint:
E.g. a Human in vitro Clint of 2.4 mL/min/g liver corresponds to a hepatic extraction ratio of 75%.
Some compounds of the present invention were tested according to example 121.

IC50 (NK1 receptor) [nM] | Human in vitro Clint (mL/min/g liver) [1] [mL/min/g liver] | Compound
0.0794 | 10 | Cc1ccccc1[C@H]1[C@@H]2CC(CCO)(CCO)C(=O)N2CCN1C(=O)N(C)[C@H](C)c1cc(F)cc(C(F)(F)F)c1 [Compound 93, (1S,8aS)-N-((R)-1-(3-fluoro-5-(trifluoromethyl)phenyl)ethyl)-7,7-bis(2-hydroxyethyl)-N-methyl-6-oxo-1-o-tolylhexahydropyrrolo[1,2-a]pyrazine-2(1H)-carboxamide]
0.0158 | 11 | Cc1ccccc1[C@H]1[C@@H]2CC(CCO)(CCO)C(=O)N2CCN1C(=O)N(C)[C@@H](C)c1cc(F)cc(C(F)(F)F)c1 [Compound 92, (1S,8aS)-N-((S)-1-(3-fluoro-5-(trifluoromethyl)phenyl)ethyl)-7,7-bis(2-hydroxyethyl)-N-methyl-6-oxo-1-o-tolylhexahydropyrrolo[1,2-a]pyrazine-2(1H)-carboxamide]
0.1 | 3.1 | Cc1ccccc1[C@H]1[C@@H]2CC(CO)(CO)C(=O)N2CCN1C(=O)N(C)[C@H](C)c1cc(C(F)(F)F)cc(C(F)(F)F)c1 [Compound 104, (1S,8aS)-N-((R)-1-(3,5-bis(trifluoromethyl)phenyl)ethyl)-7,7-bis(hydroxymethyl)-N-methyl-6-oxo-1-o-tolylhexahydropyrrolo[1,2-a]pyrazine-2(1H)-carboxamide]
0.0794 | 4.2 | Cc1ccccc1C1C2CC(CCO)(CCO)CN2CCN1C(=O)N(C)Cc1cc(C(F)(F)F)cc(C(F)(F)F)c1 (single isomer, unassigned) [Compound 66, N-{[3,5-bis(trifluoromethyl)phenyl]methyl}-7,7-bis(2-hydroxyethyl)-N-methyl-1-(2-methylphenyl)-octahydropyrrolo[1,2-a]piperazine-2-carboxamide]
0.38 | 2.4 | Cc1ccccc1C1C2CC(CN3CCCC3)C(=O)N2CCN1C(=O)N(C)Cc1cc(C(F)(F)F)cc(C(F)(F)F)c1 (single isomer, unassigned) [Compound 30, N-{[3,5-bis(trifluoromethyl)phenyl]methyl}-N-methyl-1-(2-methylphenyl)-6-oxo-7-(pyrrolidin-1-ylmethyl)-octahydropyrrolo[1,2-a]piperazine-2-carboxamide]
0.603 | 2.8 | Cc1ccccc1C1C2CCC(=O)N2CCN1C(=O)N(C)Cc1cc(C(F)(F)F)cc(C(F)(F)F)c1 (single isomer, unassigned) [Compound 18, N-{[3,5-bis(trifluoromethyl)phenyl]methyl}-N-methyl-1-(2-methylphenyl)-6-oxo-octahydropyrrolo[1,2-a]piperazine-2-carboxamide]
0.347 | 1.9 | Cc1ccccc1C1C2CC(CO)CN2CCN1C(=O)N(C)Cc1cc(C(F)(F)F)cc(C(F)(F)F)c1 (single isomer, unassigned) [Compound 49, N-{[3,5-bis(trifluoromethyl)phenyl]methyl}-7-(hydroxymethyl)-N-methyl-1-(2-methylphenyl)-octahydropyrrolo[1,2-a]piperazine-2-carboxamide]
0.0794 | 4.8 | Cc1cc([C@@H](C)N(C)C(=O)N2CCN3C(=O)C(CO)(CO)C[C@H]3[C@@H]2c2ccccc2C)cc(C(F)(F)F)c1 [Compound 103, (1S,8aS)-7,7-bis(hydroxymethyl)-N-methyl-N-((R)-1-(3-methyl-5-(trifluoromethyl)phenyl)ethyl)-6-oxo-1-o-tolylhexahydropyrrolo[1,2-a]pyrazine-2(1H)-carboxamide]
0.166 | 1.9 | Cc1ccccc1C1C2CC3(CCN(C)CC3)C(=O)N2CCN1C(=O)N(C)Cc1cc(C(F)(F)F)cc(C(F)(F)F)c1 (racemic) [Compound 45, N-{[3,5-bis(trifluoromethyl)phenyl]methyl}-N,1-dimethyl-4′-(2-methylphenyl)-1′-oxo-hexahydro-1′H-spiro[piperidine-4,2′-pyrrolo[1,2-a]piperazine]-5′-carboxamide]
0.0631 | 15 | Cc1cc(CN(C)C(=O)N2CCN3C(=O)C(CCO)(CCO)C[C@H]3[C@@H]2c2ccccc2C)cc(C(F)(F)F)c1 [Compound 77, (1S,8aS)-7,7-bis(2-hydroxyethyl)-N-methyl-N-(3-methyl-5-(trifluoromethyl)benzyl)-6-oxo-1-o-tolylhexahydropyrrolo[1,2-a]pyrazine-2(1H)-carboxamide]

Continued, molecule first:

Compound | IC50 (NK1 receptor) [nM] | Human in vitro Clint (mL/min/g liver) [1] [mL/min/g liver]
Cc1ccccc1C1C2CC(CO)CN2CCN1C(=O)N(C)Cc1cc(C(F)(F)F)cc(C(F)(F)F)c1 (single isomer, unassigned) [Compound 52, N-{[3,5-bis(trifluoromethyl)phenyl]methyl}-7-(hydroxymethyl)-N-methyl-1-(2-methylphenyl)-octahydropyrrolo[1,2-a]piperazine-2-carboxamide; methanesulfonic acid salt] | 0.513 | 3.1
Cc1ccccc1C1C2CC(CO)C(=O)N2CCN1C(=O)N(C)[C@H](C)c1cc(C(F)(F)F)cc(C(F)(F)F)c1 (single isomer, unassigned) [Compound 56] | 0.112 | 0.34
CCC(c1cc(C(F)(F)F)cc(C(F)(F)F)c1)N(C)C(=O)N1CCN2C(=O)C(CCO)(CCO)C[C@H]2[C@@H]1c1ccccc1C (stereo partly drawn) [Compound 83, (1S,8aS)-N-(1-(3,5-bis(trifluoromethyl)phenyl)propyl)-7,7-bis(2-hydroxyethyl)-N-methyl-6-oxo-1-o-tolylhexahydropyrrolo[1,2-a]pyrazine-2(1H)-carboxamide] | 0.132 | 7.8
Cc1ccccc1C1C2CCCN2CCN1C(=O)N(C)[C@H](C)c1cc(C(F)(F)F)cc(C(F)(F)F)c1 (single isomer, unassigned) [Compound 63] | 0.324 | 11
Cc1ccccc1[C@H]1[C@H]2CCC(=O)N2CCN1C(=O)N(C)[C@H](C)c1cc(C(F)(F)F)cc(C(F)(F)F)c1 (single isomer, unassigned) [Compound 75] | 0.0316 | 32
Cc1cc([C@@H](CO)N(C)C(=O)N2CCN3C(=O)C(CCO)(CCO)C[C@H]3[C@@H]2c2ccccc2C)cc(C(F)(F)F)c1 [Compound 111, (1S,8aS)-N-((S)-2-hydroxy-1-(3-methyl-5-(trifluoromethyl)phenyl)ethyl)-7,7-bis(2-hydroxyethyl)-N-methyl-6-oxo-1-o-tolylhexahydropyrrolo[1,2-a]pyrazine-2(1H)-carboxamide] | 0.0617 | 3.7
Cc1ccccc1C1C2CC(CN3CCOCC3)C(=O)N2CCN1C(=O)N(C)Cc1cc(C(F)(F)F)cc(C(F)(F)F)c1 (single isomer, unassigned) [Compound 29, N-{[3,5-bis(trifluoromethyl)phenyl]methyl}-N-methyl-1-(2-methylphenyl)-7-(morpholin-4-ylmethyl)-6-oxo-octahydropyrrolo[1,2-a]piperazine-2-carboxamide] | 0.398 | 6.4
COc1cc(CN(C)C(=O)N2CCN3C(=O)C(CCO)(CCO)C[C@H]3[C@@H]2c2ccccc2C)cc(C(F)(F)F)c1 [Compound 78, (1S,8aS)-7,7-bis(2-hydroxyethyl)-N-(3-methoxy-5-(trifluoromethyl)benzyl)-N-methyl-6-oxo-1-o-tolylhexahydropyrrolo[1,2-a]pyrazine-2(1H)-carboxamide] | 0.112 | 4.6
Cc1ccccc1C1C2CC(CN3CCOCC3)C(=O)N2CCN1C(=O)N(C)Cc1cc(C(F)(F)F)cc(C(F)(F)F)c1 (single isomer, unassigned) [Compound 50] | 0.224 | 2.9
